Experimental data from ChEMBL document CHEMBL3046689, “Volatile aldehydes are promising broad-spectrum postharvest insecticides” (J Agric Food Chem, 2000).
Values after ≈ are worked out from the molar mass of the structure shown. Active and inactive are the calls of the source. The rule behind the calls is not given here.

How the values were obtained:
[1] = test system: Myzus persicae; assay: Insecticidal activity against Myzus persicae (green peach aphid) applied through two-tier reduced pressure fumigation at 30 mmHg for 0.5 hr and then 760 mmHg for 1.5 hr at 23 +/- 1 degC; format: functional
[2] = test system: Pseudococcus viburni; assay: Insecticidal activity against Pseudococcus viburni; format: functional, organism-based
[3] = test system: Lactuca sativa; assay: Phytotoxicity in naked Lactuca sativa (lettuce) assessed as residual aldehyde odor after compound application through two-tier reduced pressure fumigation at 30 mmHg for 0.5 hr and then 760 mmHg for 1.5 hr at 23 +/- 1 degC after 2 hr; format: organism-based; conditions: in vivo
[4] = test system: Pseudococcus affinis; assay: Insecticidal activity against Pseudococcus affinis; format: functional, organism-based
[5] = test system: Bemisia; assay: Insecticidal activity against Bemisia sp.; format: functional, organism-based
[6] = test system: Lactuca sativa; assay: Phytotoxicity in naked Lactuca sativa (lettuce) assessed as change in visual quality after compound application through two-tier reduced pressure fumigation at 30 mmHg for 0.5 hr and then 760 mmHg for 1.5 hr at 23 +/- 1 degC after 2 hr; format: organism-based; conditions: in vivo
[7] = test system: Tetranychus urticae; assay: Insecticidal activity against Tetranychus urticae (two-spotted spider mite); format: functional, organism-based
[8] = test system: Brevicoryne brassicae; assay: Insecticidal activity against Brevicoryne brassicae (cabbage aphids); format: functional, organism-based
[9] = test system: Frankliniella occidentalis; assay: Insecticidal activity against Frankliniella occidentalis (western flower thrips); format: functional, organism-based
[10] = test system: Myzus persicae; assay: Insecticidal activity against Myzus persicae (green peach aphid) placed under third leaf of naked Iceburg lettuce heads and after compound application for 2 hr through two-tier reduced pressure fumigation at 30 mmHg for 0.5 hr and then 760 mmHg for 1.5 hr at 23 +/- 1 degC measured after 24 hr; format: functional; conditions: for LC50: Myzus persicae, read-out: LD50 (the source's name)
[11] = test system: Citrus sinensis; assay: Phytotoxicity in Citrus sinensis (orange) assessed as induction of olfactory damage after compound application for 1 hr through two-tier reduced pressure fumigation at 30 mmHg for 0.5 hr and then 760 mmHg for 1.5 hr at 23 +/- 1 degC; format: organism-based; conditions: in vivo
[12] = test system: Lactuca sativa; assay: Phytotoxicity in wrapped Lactuca sativa (lettuce) assessed as induction of visual damage after compound application for 1 hr through two-tier reduced pressure fumigation at 30 mmHg for 0.5 hr and then 760 mmHg for 1.5 hr at 23 +/- 1 degC; format: organism-based; conditions: in vivo
[13] = test system: Lactuca sativa; assay: Phytotoxicity in naked Lactuca sativa (lettuce) after compound application for 1 hr through two-tier reduced pressure fumigation at 30 mmHg for 0.5 hr and then 760 mmHg for 1.5 hr at 23 +/- 1 degC; format: organism-based; conditions: in vivo
[14] = test system: Lactuca sativa; assay: Phytotoxicity in naked Lactuca sativa (lettuce) assessed as induction of olfactory damage after compound application for 1 hr through two-tier reduced pressure fumigation at 30 mmHg for 0.5 hr and then 760 mmHg for 1.5 hr at 23 +/- 1 degC; format: organism-based; conditions: in vivo
[15] = test system: Persea americana; assay: Phytotoxicity in Persea americana (avocado) assessed as induction of visual damage after compound application for 1 hr through two-tier reduced pressure fumigation at 30 mmHg for 0.5 hr and then 760 mmHg for 1.5 hr at 23 +/- 1 degC; format: organism-based; conditions: in vivo
[16] = test system: Vitis vinifera; assay: (§1) Phytotoxicity in Vitis vinifera assessed as induction of olfactory damage after compound application for 1 hr through two-tier reduced pressure fumigation at 30 mmHg for 0.5 hr and then 760 mmHg for 1.5 hr at 23 +/- 1 degC; format: organism-based; conditions: in vivo
[17] = test system: Myzus persicae; assay: Insecticidal activity against Myzus persicae (green peach aphid) infested naked lettuce applied for 1 hr through two-tier reduced pressure fumigation at 30 mmHg for 0.5 hr and then 760 mmHg for 1.5 hr at 23 +/- 1 degC measured 24 hr; format: functional, organism-based
[18] = test system: Citrus limon; assay: Phytotoxicity in Citrus limon (lemon) assessed as induction of olfactory damage after compound application for 1 hr through two-tier reduced pressure fumigation at 30 mmHg for 0.5 hr and then 760 mmHg for 1.5 hr at 23 +/- 1 degC; format: organism-based; conditions: citrus x limon, in vivo
[19] = test system: Brassica oleracea var. capitata; assay: Phytotoxicity in Brassica oleracea var. capitata (cabbage) after compound application for 1 hr through two-tier reduced pressure fumigation at 30 mmHg for 0.5 hr and then 760 mmHg for 1.5 hr at 23 +/- 1 degC; format: organism-based; conditions: in vivo
[20] = test system: Brassica oleracea var. italica; assay: Phytotoxicity in Brassica oleracea var. italica after compound application for 1 hr through two-tier reduced pressure fumigation at 30 mmHg for 0.5 hr and then 760 mmHg for 1.5 hr at 23 +/- 1 degC; format: organism-based; conditions: in vivo
[21] = test system: Malus domestica; assay: Phytotoxicity in Malus x domestica (apple) assessed as induction of olfactory damage after compound application for 1 hr through two-tier reduced pressure fumigation at 30 mmHg for 0.5 hr and then 760 mmHg for 1.5 hr at 23 +/- 1 degC; format: organism-based; conditions: in vivo
[22] = test system: Oryza sativa; assay: Phytotoxicity in Oryza sativa (rice) assessed as induction of visual damage after compound application for 1 hr through two-tier reduced pressure fumigation at 30 mmHg for 0.5 hr and then 760 mmHg for 1.5 hr at 23 +/- 1 degC; format: organism-based; conditions: in vivo
[23] = test system: Brassica oleracea var. capitata; assay: Phytotoxicity in Brassica oleracea var. capitata (cabbage) assessed as induction of visual damage after compound application for 1 hr through two-tier reduced pressure fumigation at 30 mmHg for 0.5 hr and then 760 mmHg for 1.5 hr at 23 +/- 1 degC; format: organism-based; conditions: in vivo
[24] = test system: Citrus x paradisi; assay: Phytotoxicity in Citrus x paradisi (grape fruit) assessed as induction of visual damage after compound application for 1 hr through two-tier reduced pressure fumigation at 30 mmHg for 0.5 hr and then 760 mmHg for 1.5 hr at 23 +/- 1 degC; format: organism-based; conditions: in vivo
[25] = test system: Brassica oleracea var. italica; assay: Phytotoxicity in Brassica oleracea var. italica assessed as induction of visual damage after compound application for 1 hr through two-tier reduced pressure fumigation at 30 mmHg for 0.5 hr and then 760 mmHg for 1.5 hr at 23 +/- 1 degC; format: organism-based; conditions: in vivo
[26] = test system: Vitis vinifera; assay: as §1; format: organism-based; conditions: in vivo; remark: listed apart in the source
[27] = test system: Phaseolus vulgaris; assay: PhytoToxicity in Phaseolus vulgaris (beans) assessed as induction of visual damage after compound application for 1 hr through two-tier reduced pressure fumigation at 30 mmHg for 0.5 hr and then 760 mmHg for 1.5 hr at 23 +/- 1 degC; format: organism-based; conditions: in vivo, other
[28] = test system: Myzus persicae; assay: Insecticidal activity against Myzus persicae (green peach aphid) infested wrapped lettuce applied for 1 hr through two-tier reduced pressure fumigation at 30 mmHg for 0.5 hr and then 760 mmHg for 1.5 hr at 23 +/- 1 degC measured 24 hr; format: functional, organism-based

Compound	Activity [2]	Activity [3]	Activity [4]	Activity [5]	Activity [6]	Activity [7]	Activity [8]	Activity [9]	LD90 [10]	LC50 [10]	further results
CC(C)C=O [ISOBUTYRALDEHYDE]	Active	Toxic	Active	Active	Toxic	inactive	inactive	Active	224.1 mg/L		CTP [1]: 9.2 mg/L.hr
CC(C)=CC=O [3-METHYL-(E)-2-BUTENAL]	Active	Toxic	Active	Active	Toxic	inactive	inactive	Active	139.1 mg/L	73.9 mg/L (≈ 879 µM)	
CC/C=C(\C)C=O [2-methyl-(E)-2-pentenal]	Active	Toxic	Active	Active	Toxic	inactive	inactive	Active	85.8 mg/L	33.5 mg/L (≈ 341 µM)	
CCC(C)C=O (centres undefined) [2-METHYLBUTANAL]	Active	Toxic	Active	Active	Toxic	inactive	inactive	Active	184.4 mg/L	138 mg/L (≈ 1610 µM)	
CC/C=C/C=O [PENTENAL]	Active	Toxic	Active	Active	Toxic	inactive	inactive	Active	25.8 mg/L	13.1 mg/L (≈ 156 µM)	Activity [11]: Non-toxic; Activity [12]: Toxic; Activity [13]: Toxic; Activity [14]: Toxic; Activity [15]: Toxic; Activity [16]: Non-toxic; Activity [17]: Active; Activity [18]: Non-toxic; Activity [19]: Toxic; Activity [20]: Toxic; Activity [21]: Non-toxic; Activity [22]: Toxic; Activity [23]: Toxic; Activity [24]: Toxic; Activity [25]: Toxic; Activity [26]: Non-toxic; CTP [10]: 106 mg/L.hr; Activity [27]: Toxic; Activity [28]: Active
CCC/C=C/C=O	Active	Toxic	Active	Active	Toxic	inactive	inactive	Active	54.4 mg/L	24.3 mg/L (≈ 248 µM)	
